This note sets out measurements from patent US20240358683A1, “COMPOSITION FOR PREVENTING OR TREATING NEURODEGENERATIVE DISEASE COMPRISING COMPOUND INDUCING EXPRESSION OF ANTI-AGING GENE KLOTHO” (KLOTHO SCIENCES, priority 2021, published 2024).

In data set [1] the test system is human klotho gene. Nature of the data set: Luciferase expression experiment, reporter gene pHKP-luc (promoter up to -2.1 kb upstream of the human klotho gene) in RPTECs. Type of data set: cell-based. How it is done: (§1) In order to evaluate whether the klotho gene was expressed by the evaluation of luciferase activity, human renal proximal tubule epithelial cells (RPTECs) (ATCC CRL-4031), which are epithelial cells of the proximal tubule of the human kidneys, were purchased from Lonza, USA and used.
(§2) For culturing, a Renal Epithelial Growth Medium (REGM™) Bullet kit, also manufactured by the same Lonza company, was used, and the cells were cultured under conditions of 37° C. and 5% CO2. As a plasmid for luciferase expression, a plasmid in which the promoter site of a human KL (klotho) gene was disposed to regulate the expression of a firefly luciferase gene was used.
The plasmid was incorporated into cells using an X-treme GENE transfection reagent from Roche. The activity of luciferase expressed in cells was measured using a Dual-Luciferase reporter assay system manufactured by Promega. After the cultured cells were treated with each compound at an indicated concentration for 24 hours, the activity of luciferase was measured. It is indirectly shown that the expression of the klotho gene may be increased when the activity of luciferase is high.
The results of confirming the expression of a reporter gene by treating RPTECs, which are epithelial cells of the proximal tubule of the human kidneys, with Examples 1 to 6 at concentrations of 0.5, 1 and 5 μM and Comparative Example 1 at a concentration of 5 μM and using a reporter gene (pHKP-luc) including a promoter included up to −2.1 kb upstream of the human klotho gene are illustrated in FIGS. 2 and 3.
(In a reporter assay the amount or activity of a reporter protein is the signal.)

Data set [2] has as its system klotho (KL) gene. Nature of the data set: Quantitative evaluation of klotho (KL) gene expression level using real-time PCR in RPTEC cells. Type of data set: cell-based, human. The following applies: RPTEC cells treated for 6 hours; vs Comparative Example 1; FIG. 4. As to the method:
For RNA extraction from RPTEC cells, which are epithelial cells of the proximal tubule of the human kidneys, treated with the compounds of Comparative Example 1 and Examples 1 and 2 for 6 hours, an RNeasy kit from Qiagen Inc. was used. The results of preparing cDNA from extracted RNA using a Superscript II kit from Thermo Fisher Scientific, Inc. and performing the quantitative evaluation using Taqman Gene Expression assays from Applied Biosystems as a klotho (KL) gene-specific kit are illustrated in FIG. 4.
A general note: Real-time PCR tracks product formation cycle by cycle.

Data set [3] deals with human klotho gene. The data set can be described thus: Luciferase expression experiment, human klotho promoter reporter (1.7 kbp / 240 bp) in RPTEC cells. Type of data set: cell-based. To be noted: 5 μM, 24 hours, compared among Comparative Examples 1 to 4, FIG. 1. As to the method: as §1, §2
The plasmid was incorporated into cells using an X-treme GENE transfection reagent from Roche. The activity of luciferase expressed in cells was measured using a Dual-Luciferase reporter assay system manufactured by Promega. After the cultured cells were treated with each compound at an indicated concentration for 24 hours, the activity of luciferase was measured. It is indirectly shown that the expression of the klotho gene may be increased when the activity of luciferase is high. […]

In data set [4] the test system is klotho (KL) gene. The data set can be described thus: Quantitative evaluation of klotho (KL) gene expression level using general PCR in RPTEC cells. To be noted: 2.5 μM, 6 hours, FIG. 5. The data set is classed as cell-based, human. How it is done: After RPTEC cells, which are epithelial cells of the proximal tubule of the human kidneys, were each treated with the compounds of Examples 7 to 10 at 2.5 μM for 6 hours, RNA was extracted from the cells, and cDNA was prepared from the extracted RNA using a Superscript II kit from Thermo Fisher Scientific, Inc., and then general PCR was performed.
Information on the primers used in the experiment is as follows. • KL-F […] (SEQ ID NO: 1) • KL-R […] (SEQ ID NO: 2) • GAPDH-F […] (SEQ ID NO: 3) • GAPDH-R […] (SEQ ID NO: 4)
The DNA amplified by PCR was confirmed by staining with ethidium bromide after electrophoresis on an agarose gel, and the amounts of DNA in the band were quantitatively compared using the SPEedyQuant program, and are illustrated in FIG. 5.

Data set [5] relates to human kidney-2 (HK2) cells. Nature of the data set: Toxicity test, EZ-Cytox kit. The data set is classed as cell-based. To be noted: 12.5 μM or 25 μM, 24 hours, FIG. 6. As to the method:
Cultured human kidney-2 (HK2) cells were treated with Comparative Example 1, Example 2 and Examples 9 to 10 at a concentration of 25 μM or 12.5 μM, and after 24 hours, cytotoxicity was measured using an EZ-Cytox kit.

In data set [6] the test system is HT22 cells. The data set can be described thus: Neuronal senescence inhibition, senescence β-galactosidase staining. To be noted: FIG. 7. Type of data set: cell-based, mouse. How it is done: (§3) HT22 cells, neuronal cells derived from mouse hippocampus, were cultured in DMEM culture medium supplemented with 10% FBS. Cell cultures were incubated in a 37° C. incubator at 5% CO2, and when the cells grew to saturate the surface of the culture dish by 80%, they were treated with 0.05% trypsin and transferred to new culture dishes for passage. The compound was added to the medium at each passage to maintain a final concentration of 2.5 μM. Cells with only DMSO as solvent were used as a negative control, and cells from three passages (#5) were used as a non-aging control. All senescent cells were cultured in 20 passages (#25).
To check the degree of senescence of the cells, “Senescence β-galactosidase staining kit” from Cell Signaling Technology was used. The staining solution was added to the cells on the day of the experiment and the stained cells were checked 8 hours later. The number of stained cells was determined and expressed as a percentage of the total number of cells observed under a 200× microscope, and the number of stained cells in three different locations per sample was counted and averaged. As the expression of β-galactosidase enzyme increases as the aging of cells progresses, stained cells can be judged as more aged cells than unstained cells.

Data set [7] deals with HT22 cells. Nature of the data set: Neuronal inflammation inhibition, LPS-induced cytotoxicity (Cyto X cell viability assay). Type of data set: cell-based, mouse. The following applies: 2.5 μM, LPS 1 μg/mL 24 hours, FIG. 8. As to the method: as §3
Cells were seeded at 10,000 cells in 160 μl of medium into each well of a 96-well plate and incubated in a 37° C. incubator at 5% CO^2 for 24 h. The compounds were added to the culture medium to a final concentration of 2.5 μM. After incubation, LPS (lipopolysaccharide) from Cell application was added at a concentration of 1 μg/mL and incubated for another 24 hours. The Cyto X cell viability assay kit from the same company was then added 20 μl to each well and incubated for 1 to 4 hours. The color change was then measured at 450 nm.

In another data set the test system is phospho-Tau. Nature of the data set: phospho-Tau immunohistochemistry of brain tissue sections, 5×FAD cognitive dysfunction animal model. Type of data set: in vivo. To be noted: 5×FAD mice, 10 mg/kg p.o. daily, FIG. 9. From the text: (§4) In this experiment, 5×FAD mice aged 4 months or 6 months were used. 5×FAD mice are Alzheimer's mice genetically modified to overproduce beta amyloid (Aβ, β amyloid) and were provided by the KIST Research Animal Resource Center, which maintains and sells them. Normal control (WT) mice, which are not genetically modified to overproduce β-amyloid (Aβ), were provided by the KIST Research Animal Resource Center. The animals were acclimatized for 1 week before the experiments. Mice were kept on an ad libitum diet in an animal room maintained at 22±2° C. and 40-60% humidity, and the light and dark cycles were controlled at 12-hour intervals. All animal experiments were performed in accordance with the animal care and use regulations of the Institutional Animal Care and Use Committee of the Korea Advanced Institute of Science and Technology (KIST).
(§5) Animal model mice and normal control mice received vehicle (5% DMSO+65% PEG400+30% Saline) or vehicle with KS1 (Example 10) dissolved in it orally (p.o.) at a concentration of 10 mg/kg daily for 4 or 12 weeks. Three mice were used per experimental group. The body weight was measured weekly during the treatment period, and after the end of the treatment, the cognitive function was tested and sacrificed, and the organs were harvested to confirm the changes through biochemical methods.
(§6) All data were expressed as mean (S.E.M), and differences between groups were determined using one-way ANOVA and Tukey's multiple comparisons test. When it was determined that there was a statistical difference, p<0.05 *, p<0.01 **, p<0.001 *** were indicated.
The fluorescence levels of phospho-Tau measured in each region (HPC: hippocampus; CTX: neocortex) of brain tissue sections isolated from control (CTL) and KS1 1-month and 3-month treatment groups of 5×FAD cognitive dysfunction animal model and normal control animal model were investigated by Immunohistochemistry.

The next data set has as its system NeuN. Nature of the data set: NeuN immunohistochemistry of brain tissue sections, 5×FAD cognitive dysfunction animal model. Type of data set: in vivo. The following applies: 5×FAD mice, 10 mg/kg p.o. daily, FIG. 10.
From the text: as §4, §5, §6
The fluorescence level of NeuN measured in each region (CTX: neocortex, CA: […], DG: dentate gyrus) of brain tissue sections isolated from control (CTL) and KS1 1-month and 3-month treatment groups of 5×FAD cognitive dysfunction animal model and normal control animal model was investigated by Immunohistochemistry.

Data set [8] deals with 5×FAD mice. The data set can be described thus: Novel object recognition test (NOR) in 5×FAD mice. Type of data set: in vivo. To be noted: 10 mg/kg p.o. daily, compared to vehicle, FIG. 11.
From the text: as §4, with “All animal experiments were performed in accordance with the animal care and use regulations of the Institutional Animal Care and Use Committee of the Korea Advanced Institute of Science and Technology (KIST).” left out
Animal model mice and normal control mice received vehicle (5% DMSO+65% PEG400+30% Saline) or vehicle with KS1 (Example 10) dissolved in it orally (p.o.) at a concentration of 10 mg/kg daily for 4 or 12 weeks. […] The body weight was measured weekly during the treatment period, and after the end of the treatment, the cognitive function was tested and sacrificed, and the organs were harvested to confirm the changes through biochemical methods.
The novel object recognition test is a modification of the existing method and consists of an adaptation period, an exploration period, and a novel object recognition period. […] The next day, one of the objects was replaced with a new object and the animal's movement was measured for 10 minutes. […]

The subject of data set [9] is 5×FAD mice. The data set can be described thus: Passive avoidance experiment in 5×FAD mice. Type of data set: in vivo. The following applies: 10 mg/kg p.o. daily for 4 weeks, compared to normal mice, FIG. 12.
From the text: as §4, with “All animal experiments were performed in accordance with the animal care and use regulations of the Institutional Animal Care and Use Committee of the Korea Advanced Institute of Science and Technology (KIST).” left out
Animal model mice and normal control mice received vehicle (5% DMSO+65% PEG400+30% Saline) or vehicle with KS1 (Example 10) dissolved in it orally (p.o.) at a concentration of 10 mg/kg daily for 4 or 12 weeks. […] The body weight was measured weekly during the treatment period, and after the end of the treatment, the cognitive function was tested and sacrificed, and the organs were harvested to confirm the changes through biochemical methods. […]
as §6

The mark [10] stands for this setting: RPTECs, Examples at 0.5, 1 and 5 μM vs Comparative Example 1 at 5 μM, FIG. 2.

For `Cc1ccc2oc(Nc3ccc(Cl)c(Cl)c3)nc2c1` [Example 2], the “expression of the reporter gene (pHKP-luc)” value in the data set with human klotho gene [1] (RPTEC cells, 5 μM, vs Comparative Example 1, FIG. 3) is listed as “level similar to that of Comparative Example 1”; in the data set with human klotho gene [1] (setting [10]), “level similar to that of Comparative Example 1”. Also, the “klotho (KL) gene mRNA expression level, real-time PCR” value in the data set with klotho (KL) gene [2] is reported as “level similar to that of Comparative Example 1”.
With `O=C(Nc1ccccc1Cl)c1c[nH]c2ccccc12` [Comparative Example 1, N-(2-chlorophenyl)-1H-indole-3-carboxamide], the luciferase activity result in the data set on human klotho gene [3] is “the highest”.
Take `O=C(Nc1nc2ccccc2o1)c1ccc([N+](=O)[O-])cc1Cl` [Example 1, N-(benzo[d]oxazol-2-yl)-2-chloro-4-nitrobenzamide]: the “expression of the reporter gene (pHKP-luc)” value in the data set on human klotho gene [1] (setting [10]) is on record as “level similar to that of Comparative Example 1”.
For `Fc1ccc(Nc2nc3ccccc3o2)cc1F` [Example 10, N-(3,4-difluorophenyl)benzo[d]oxazol-2-amine], the “expression level of the klotho (KL) gene relative to Comparative Example 1” value in the data set on klotho (KL) gene [4] is reported as “about 10 times”. Also, in data set [5], the cytotoxicity result is on record as “the least toxicity” and the “improvement of toxicity compared to Comparative Example 1” value is not below 20%. Moreover, the “β-galactosidase stained cells as a percentage of the total number of cells” value in the data set with HT22 cells [6] (HT22 cells cultured for 20 passages, 2.5 μM in the medium, DMSO control about 50%) is recorded as 40%. Also, the “decrease in the degree of senescence compared to cells grown in medium containing DMSO” value in the data set with HT22 cells [6] (HT22 cells, 20 passages, 2.5 μM) is listed as 20%. Besides, the “percentage of cells killed by LPS treatment” value in the data set on HT22 cells [7] (HT22 cells cultured for 5 passages, DMSO control 50%) is reported as 45%. Besides, the “percentage of cells killed by LPS treatment” value in the data set on HT22 cells [7] (HT22 cells cultured for 20 passages, DMSO control about 80%) worked out at 60%. Further, in the data set on phospho-Tau (1-month and 3-month treatment), the “expression of phospho-Tau protein, hippocampus (HPC) region” value was “reduced expression of the proteins was seen in only the 3-month treated mice”; the “expression of phospho-Tau protein, primary somatosensory cortex (CTX) region” value is “reduced expression of the proteins was seen in both 1- and 3-month treated mice”. Moreover, in the data set on phospho-Tau (compared to vehicle), the “expression of phospho-Tau protein” value was “reduced to a statistically significant level”. Also, in the data set on NeuN (compared to vehicle), the “expression of NeuN neuromarker protein” value is on record as “increased to a statistically significant level”. Also, in the data set on NeuN, the “NeuN, Cornu Ammonis (CA)” value is given as “an increase in NeuN was confirmed”; the “NeuN, dentate gyrus (DG)” value is on record as “no significant increase”; the “NeuN, primary somatosensory cortex (CTX)” value is recorded as “no significant increase”. In the data set with 5×FAD mice [8], the “object detection ability (NOR)” value is “statistically significant increase in object detection ability”. Also, the “spatial learning and memory performance, passive avoidance test” value in the data set with 5×FAD mice [9] is recorded as “maintained a similar level of performance to normal mice”.
